Test results: patent US20210338820A1, “PHARMACEUTICAL COMPOSITION COMPRISING ANTIEMETIC COMPOUNDS AND POLYORTHOESTER” (Heron Therapeutics, Inc., priority 2012, published 2021)

Experiments:
[1] = In-vitro release of formulation of fosaprepitant and granisetron (Example 6 formulation); assay type: physicochemical; settings: 37° C.; for active agent released from the formulation: Example 6 formulation, PBS; for in vitro release proceeded in a linear fashion up to: Example 6 semi-solid polyorthoester formulation, phosphate buffered saline, HPLC, FIG. 1
From the text: In a fifth embodiment, a formulation as described in Example 6 was weighed into vials and filled with a phosphate buffered saline solution.
A formulation as described in Example 6 was weighed into vials and filled with a phosphate buffered saline solution.

[2] = dog, in vivo, sc
Procedure: The syringes were stored at 2-8 C and brought to room temperature 1 hour before administration. Each dog received a single subcutaneous injection of the entire contents of 1 syringe (0.5 gm) over the dorsal lumbar muscle on Day 1. Blood was drawn from all dogs at the following time points: T=0, (immediately prior to drug administration), 1, 6, 12, 24, 48, 72, 96, 120, 144, and 168 hours post administration.

[3] = In-vitro release of formulation of aprepitant and granisetron (Example 1 formulation); assay type: physicochemical; settings: 37° C.; for active agent released from the formulation: Example 1 formulation, PBS + 2% CTAB; for in vitro release proceeded in a linear fashion up to: Example 1 semi-solid polyorthoester formulation, phosphate buffered saline + 2% CTAB, HPLC, FIG. 3
Procedure: In a first embodiment, 375 mg of aprepitant was dissolved in 1.3 g of a polyorthoester-compatible liquid excipient, dimethyl sulfoxide, and heated until completely dissolved. […] In a further embodiment, the formulation was weighed into vials and filled with a phosphate buffered saline solution and 2% CTAB (cetrimonium bromide). The vials were then stored at 37° C. Aliquots were taken daily and analyzed by HPLC to monitor for the release of granisetron and aprepitant from the formulation.
A formulation as described in Example 1 was weighed into vials and filled with a phosphate buffered saline solution and 2% CTAB (cetrimonium bromide). The vials were then stored at 37° C. Aliquots were taken daily and analyzed by HPLC to monitor for the release of granisetron and aprepitant from the formulation.

[4] = In vitro release of a formulation containing aprepitant (Example 3 formulation); assay type: physicochemical; settings: Example 3 semi-solid polyorthoester formulation; PBS + 2% CTAB, 37° C., HPLC, FIG. 4
Procedure: In a further embodiment, the formulation was weighed into vials and filled with a phosphate buffered saline solution and 2% CTAB. The vials were then stored at 37° C. and analyzed by HPLC to monitor for the release of aprepitant from the formulation (see FIG. 4).
A formulation as described in Example 3 was weighed into vials and filled with a phosphate buffered saline solution and 2% CTAB. The vials were then stored at 37° C. and analyzed by HPLC to monitor for the release of aprepitant from the formulation.

Row | active agent released from the formulation ([1]; at about 100 hours) | bioavailability (areas under the curves) [2] | active agent released from the formulation ([3]; after about 120 hours) | active agent released from the formulation ([3]; at about 48 hours) | active agent released from the formulation ([3]; at about 144 hours) | in vitro release proceeded in a linear fashion up to [3] | in vitro release proceeded in a linear fashion up to [4] | Structure (SMILES) | active agent released from the formulation ([1]; after about 60 hours) | active agent released from the formulation ([1]; at about 45 hours) | in vitro release proceeded in a linear fashion up to [1]
1 | about 65% | good bioavailability | about 90% | about 65% | Essentially all | about 48 hours | about 72 hours | C[C@@H](O[C@H]1OCCN(Cc2n[nH]c(=O)[nH]2)[C@H]1c1ccc(F)cc1)c1cc(C(F)(F)F)cc(C(F)(F)F)c1 [aprepitant] |  |  | 
2 |  |  |  |  |  |  |  | C[C@@H](O[C@H]1OCCN(Cc2nc(O)n(P(=O)(O)O)n2)[C@H]1c1ccc(F)cc1)c1cc(C(F)(F)F)cc(C(F)(F)F)c1 [fosaprepitant] | about 60% | about 25% | about 45 hours
3 | Nearly all |  |  | about 65% | about 90% | about 48 hours |  | CN1C2CCCC1CC(NC(=O)c1nn(C)c3ccccc13)C2 (centres unmarked) [granisetron] | about 80% | about 25% | about 45 hours
